Laboratory results from patent publication US20100080770A1, “Hepatitis C Virus Inhibitors” (priority 2008, published 2010).
Where two headings read alike, the source gives them in different places.

Legend:
[1] = molecular target: T1, HCV NS3/4A protease complex (Hepatitis C virus genotype 1a, UniProt P27958, C1454S/C1711G); assay: FRET peptide assay to monitor HCV NS3/4A proteolytic activity; type: biochemical; conditions: HCV NS3/4A protease complex, strain not stated, read-out: IC50
T1 construct: recombinant HCV NS3/4A protease complex (amino acids 1027 to 1711); inferred from the pET21b vector and Ni-NTA purification; made in house; host or cells: Escherichia coli BL21 (DE3)
T1 sequence (P27958 1027-1711 C1454S/C1711G, one chain of several): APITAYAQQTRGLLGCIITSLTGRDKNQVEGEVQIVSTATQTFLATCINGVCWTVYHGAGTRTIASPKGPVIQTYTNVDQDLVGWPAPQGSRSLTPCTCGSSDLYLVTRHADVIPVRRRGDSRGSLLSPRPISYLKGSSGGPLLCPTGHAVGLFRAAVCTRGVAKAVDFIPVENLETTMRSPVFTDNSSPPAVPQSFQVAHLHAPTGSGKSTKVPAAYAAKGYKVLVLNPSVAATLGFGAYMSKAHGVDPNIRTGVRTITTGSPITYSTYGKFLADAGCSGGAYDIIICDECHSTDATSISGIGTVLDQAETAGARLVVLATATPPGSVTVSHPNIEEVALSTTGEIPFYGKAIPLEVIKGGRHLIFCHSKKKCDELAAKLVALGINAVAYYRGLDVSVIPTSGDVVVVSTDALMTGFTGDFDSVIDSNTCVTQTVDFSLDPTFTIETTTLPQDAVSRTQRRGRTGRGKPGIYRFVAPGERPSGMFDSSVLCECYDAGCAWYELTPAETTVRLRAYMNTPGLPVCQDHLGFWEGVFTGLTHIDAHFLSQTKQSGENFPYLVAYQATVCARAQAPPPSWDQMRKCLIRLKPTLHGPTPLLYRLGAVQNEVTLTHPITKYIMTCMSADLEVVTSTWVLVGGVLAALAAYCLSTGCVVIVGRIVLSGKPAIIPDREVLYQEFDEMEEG
Description: HCV NS3 protease complexes, derived from the BMS strain, H77 strain or J4L6S strain, were generated, as described below. These purified recombinant proteins were generated for use in a homogeneous assay (see below) to provide an indication of how effective compounds of the present disclosure would be in inhibiting HCV NS3 proteolytic activity.
The H77 and J4L6S strains were used for production of recombinant NS3/4A protease complexes. DNA encoding the recombinant HCV NS3/4A protease complex (amino acids 1027 to 1711) for these strains was manipulated as described by P. Gallinari et al. (see Gallinari P, Paolini C, Brennan D, Nardi C, Steinkuhler C, De Francesco R. Biochemistry. 38(17):5620-32, (1999)). Briefly, a three-lysine solubilizing tail was added at the 3′-end of the NS4A coding region. The cysteine in the P1 position of the NS4A-NS4B cleavage site (amino acid 1711) was changed to a glycine to avoid the proteolytic cleavage of the lysine tag. Furthermore, a cysteine to serine mutation was introduced by PCR at amino acid position 1454 to prevent the autolytic cleavage in the NS3 helicase domain. The variant DNA fragment was cloned in the pET21b bacterial expression vector (Novagen) and the NS3/4A complex was expressed in Escherichia coli strain BL21 (DE3) (Invitrogen) following the protocol described by P. Gallinari et al. (see Gallinari P, Brennan D, Nardi C, Brunetti M, Tomei L, Steinkuhler C, De Francesco R., J Virol. 72(8):6758-69 (1998)) with modifications. Briefly, the NS3/4A protease complex expression was induced with 0.5 millimolar (mM) Isopropyl β-D-1-thiogalactopyranoside (IPTG) for 22 hours (h) at 20° C. A typical fermentation (1 Liter (L)) yielded approximately 10 grams (g) of wet cell paste. The cells were resuspended in lysis buffer (10 mL/g) consisting of 25 mM N-(2-Hydroxyethyl)Piperazine-N′-(2-Ethane Sulfonic acid) (HEPES), pH 7.5, 20% glycerol, 500 mM Sodium Chloride (NaCl), 0.5% Triton X-100, 1 microgram/milliliter (“μg/mL”) lysozyme, 5 mM Magnesium Chloride (MgCl2), 1 μg/ml DnaseI, 5 mM β-Mercaptoethanol (βME), Protease inhibitor-Ethylenediamine Tetraacetic acid (EDTA) free (Roche), homogenized and incubated for 20 minutes (min) at 4° C. The homogenate was sonicated and clarified by ultra-centrifugation at 235000 g for 1 hour (h) at 4° C. Imidazole was added to the supernatant to a final concentration of 15 mM and the pH adjusted to 8.0. The crude protein extract was loaded on a Nickel-Nitrilotriacetic acid (Ni-NTA) column pre-equilibrated with buffer B (25 mM HEPES, pH 8.0, 20% glycerol, 500 mM NaCl, 0.5% Triton X-100, 15 mM imidazole, 5 mM βME). The sample was loaded at a flow rate of 1 ml/min. The column was washed with 15 column volumes of buffer C (same as buffer B except with 0.2% Triton X-100). The protein was eluted with 5 column volumes of buffer D (same as buffer C except with 200 mM Imidazole).
NS3/4A protease complex-containing fractions were pooled and loaded on a desalting column Superdex-S200 pre-equilibrated with buffer D (25mM HEPES, pH 7.5, 20% glycerol, 300 mM NaCl, 0.2% Triton X-100, 10 mM βME). Sample was loaded at a flow rate of 1 mL/min. NS3/4A protease complex-containing fractions were pooled and concentrated to approximately 0.5 mg/ml. The purity of the NS3/4A protease complexes, derived from the BMS, H77 and J4L6S strains, were judged to be greater than 90% by SDS-PAGE and mass spectrometry analyses. The enzyme was stored at −80° C., thawed on ice and diluted prior to use in assay buffer.
The purpose of this in vitro assay was to measure the inhibition of HCV NS3 protease complexes, derived from the BMS strain, H77 strain or J4L6S strain, as described above, by compounds of the present disclosure. This assay provides an indication of how effective compounds of the present disclosure would be in inhibiting HCV NS3 proteolytic activity.
In order to monitor HCV NS3/4A protease activity, an NS3/4A peptide substrate was used. […]

[2] = test system: HCV replicon in HUH-7 cells; assay: HCV replicon assay (FRET, confirmed in the luciferase reporter assay); type: cell-based; conditions: Hepatitis C virus, 96 h, 4 days
Description: An HCV replicon whole cell system was established as described by Lohmann V, Korner F, Koch J, Herian U, Theilmann L, Bartenschlager R., Science 285(5424):110-3 (1999). This system enabled us to evaluate the effects of our HCV Protease compounds on HCV RNA replication. Briefly, using the HCV strain 1b sequence described in the Lohmann paper (Assession number: AJ238799), an HCV cDNA was synthesized by Operon Technologies, Inc. (Alameda, Calif.), and the full-length replicon was then assembled in plasmid pGem9zf(+) (Promega, Madison, Wis.) using standard molecular biology techniques. The replicon consists of (i) the HCV 5′ UTR fused to the first 12 amino acids of the capsid protein, (ii) the neomycin phosphotransferase gene (neo), (iii) the IRES from encephalomyocarditis virus (EMCV), and (iv) HCV NS3. to NS5B genes and the HCV 3′ UTR. Plasmid DNAs were linearized with Seal and RNA transcripts were synthesized in vitro using the T7 MegaScript transcription kit (Ambion, Austin, Tex.) according to manufacturer's directions. In vitro transcripts of the cDNA were transfected into the human hepatoma cell line, HUH-7. […] Resulting cell lines were characterized for positive and negative strand RNA production and protein production over time.
The HCV replicon FRET assay was developed to monitor the inhibitory effects of compounds described in the disclosure on HCV viral replication. HUH-7 cells, constitutively expressing the HCV replicon, were grown in Dulbecco's Modified Eagle Media (DMEM) (Gibco-BRL) containing 10% Fetal calf serum (FCS) (Sigma) and 1 mg/ml G418 (Gibco-BRL). Cells were seeded the night before (1.5×10^4 cells/well) in 96-well tissue-culture sterile plates. Compound and no compound controls were prepared in DMEM containing 4% FCS, 1:100 Penicillin/Streptomysin (Gibco-BRL), 1:100 L-glutamine and 5% DMSO in the dilution plate (0.5% DMSO final concentration in the assay). Compound/DMSO mixes were added to the cells and incubated for 4 days at 37° C. After 4 days, cells were first assessed for cytotoxicity using alamar Blue (Trek Diagnotstic Systems) for a CC50 reading. The toxicity of compound (CC50) was determined by adding 1/10th volume of alamar Blue to the media incubating the cells. After 4 h, the fluorescence signal from each well was read, with an excitation wavelength at 530 nm and an emission wavelength of 580 nm, using the Cytofluor Series 4000 (Perspective Biosystems). Plates were then rinsed thoroughly with Phosphate-Buffered Saline (PBS) (3 times 150 μl).
As a secondary assay, EC50 determinations from the replicon FRET assay were confirmed in a replicon luciferase reporter assay. Utilization of a replicon luciferase reporter assay was first described by Krieger et al (Krieger N, Lohmann V, and Bartenschlager R, J. Virol. 75(10):4614-4624 (2001)). The replicon construct described for our FRET assay was modified by inserting cDNA encoding a humanized form of the Renilla luciferase gene and a linker sequence fused directly to the 3′-end of the luciferase gene. This insert was introduced into the replicon construct using an Ascl restriction site located in core, directly upstream of the neomycin marker gene. The adaptive mutation at position 1179 (serine to isoleucine) was also introduced (Blight K J, Kolykhalov, A A, Rice, C M, Science 290(5498):1972-1974). A stable cell line constitutively expressing this HCV replicon construct was generated as described above. The luciferase reporter assay was set up as described for the HCV replicon FRET assay with the following modifications. Following 4 days in a 37° C./5% CO2 incubator, cells were analyzed for Renilla Luciferase activity using the Promega Dual-Glo Luciferase Assay System. Media (100 μl) was removed from each well containing cells. To the remaining 50 μl of media, 50 μl of Dual-Glo Luciferase Reagent was added, and plates rocked for 10 min to 2 h at room temperature. […]

Row | SMILES | IC50 ([1]; numeric values) [nM] | EC50 ([2]; numeric values) [nM] | IC50 ([1]; class symbols) [nM] | EC50 ([2]; class symbols) [nM]
1 | C=C[C@@H]1C[C@]1(NC(=O)[C@@H]1C[C@]2(OC)CN1C(=O)[C@H](C(C)(C)C)NC(=O)OCC/C=C\c1cc3cc2ccc3cc1OC)C(=O)NS(=O)(=O)C1CC1 [Example 1] | 31 | 120 | – | –
2 | C=C[C@@H]1C[C@]1(NC(=O)[C@@H]1C[C@]2(OC)CN1C(=O)[C@H](C(C)(C)C)NC(=O)OCCC/C=C\c1cc3cc2ccc3cc1OC)C(=O)NS(=O)(=O)C1CC1 [Example 4] | – | – | 1 to 10 | 1 to 10
3 | C=C[C@@H]1C[C@]1(NC(=O)[C@@H]1C[C@]2(OC)CN1C(=O)[C@H](C(C)(C)C)NC(=O)OCCCCC=Cc1cc3cc2ccc3cc1OC)C(=O)NS(=O)(=O)C1CC1 [Example 7] | – | – | 1 to 10 | 1 to 10
4 | C=C[C@@H]1C[C@]1(NC(=O)[C@@H]1C[C@]2(OC)CN1C(=O)[C@H](C(C)(C)C)NC(=O)OCC(C)(C)C/C=C\c1cc3cc2ccc3cc1OC)C(=O)NS(=O)(=O)C1CC1 [Example 8] | – | – | 1 to 10 | 1 to 10
5 | C=C[C@@H]1C[C@]1(NC(=O)[C@@H]1C[C@]2(OC)CN1C(=O)[C@H](C(C)(C)C)NC(=O)OCC(C)(C)CCCc1cc3cc2ccc3cc1OC)C(=O)NS(=O)(=O)C1CC1 [Example 9] | – | – | 1 to 10 | 1 to 10
6 | COc1cc2ccc3cc2cc1CCCC(C)(C)COC(=O)N[C@@H](C(C)(C)C)C(=O)N1C[C@@]3(OC)C[C@H]1C(=O)N[C@]1(C(=O)NS(=O)(=O)C2CC2)C[C@H]1C1CC1 [Example 10] | – | – | 11 to 12 | 21 to 150
7 | COc1cc2ccc3cc2cc1CCCC(C)(C)COC(=O)N[C@@H](C(C)(C)C)C(=O)N1C[C@@]3(OC)C[C@H]1C(=O)N[C@]1(C(=O)NS(=O)(=O)C2CC2)C[C@H]1C(F)F [Example 11] | – | – | 1 to 10 | 11 to 20
8 | C=C[C@@H]1C[C@]1(NC(=O)[C@@H]1C[C@]2(OC)CN1C(=O)[C@H](C(C)(C)C)NC(=O)OCCCCCCc1cc3cc2ccc3cc1OC)C(=O)NS(=O)(=O)C1CC1 [Example 12] | 1 | 2.84 | – | –
9 | COc1cc2ccc3cc2cc1CCCCCCOC(=O)N[C@@H](C(C)(C)C)C(=O)N1C[C@@]3(OC)C[C@H]1C(=O)N[C@]1(C(=O)NS(=O)(=O)C2CC2)C[C@H]1C1CC1 [Example 13] | – | – | 1 to 10 | 11 to 20
10 | C=C[C@@H]1C[C@]1(NC(=O)[C@@H]1C[C@]2(OC)CN1C(=O)[C@H](C(C)(C)C)NC(=O)OCC(C)(C)CCCCc1cc3cc2ccc3cc1OC)C(=O)NS(=O)(=O)C1CC1 [Example 14] | – | – | 1 to 10 | 1 to 10
11 | COc1cc2ccc3cc2cc1CCCCC(C)(C)COC(=O)N[C@@H](C(C)(C)C)C(=O)N1C[C@@]3(OC)C[C@H]1C(=O)N[C@]1(C(=O)NS(=O)(=O)C2CC2)C[C@H]1C1CC1 [Example 15] | – | – | 1 to 10 | 1 to 10
12 | CC[C@@H]1C[C@]1(NC(=O)[C@@H]1C[C@]2(OC)CN1C(=O)[C@H](C(C)(C)C)NC(=O)OCC(C)(C)CCCCc1cc3cc2ccc3cc1OC)C(=O)NS(=O)(=O)C1CC1 [Example 16] | – | – | 11 to 12 | 21 to 150
13 | C=C[C@@H]1C[C@]1(NC(=O)[C@@H]1C[C@]2(OC)CN1C(=O)[C@H](C(C)(C)C)NC(=O)OCCC(C)(C)CCCc1cc3cc2ccc3cc1OC)C(=O)NS(=O)(=O)C1CC1 [Example 17] | – | – | 1 to 10 | 1 to 10
14 | COc1cc2ccc3cc2cc1CCCC(C)(C)CCOC(=O)N[C@@H](C(C)(C)C)C(=O)N1C[C@@]3(OC)C[C@H]1C(=O)N[C@]1(C(=O)NS(=O)(=O)C2CC2)C[C@H]1C(F)F [Example 18] | – | – | 1 to 10 | 1 to 10
15 | COc1cc2ccc3cc2cc1CCCC(C)(C)CCOC(=O)N[C@@H](C(C)(C)C)C(=O)N1C[C@@]3(OC)C[C@H]1C(=O)N[C@]1(C(=O)NS(=O)(=O)C2CC2)C[C@H]1C1CC1 [Example 19] | – | – | 1 to 10 | 1 to 10
